One data set deals with slime. As to the kind of experiment: Attachment of slime on a synthetic rubber test board in circulating test water apparatus. Particulars: 120 hours after start of test; agent concentrations as in each example. The protocol:
(§1) From a water tank 1 holding 15 liters of water, test water was passed at a rate of 10 liters/minute through a column 3 and returned to the water tank 1 using a circulating pump 2. In the column 3, a test board made of a synthetic rubber and having a surface area of 40 cm^2 was disposed to a supporting pole to measure the amount of attachment of slime.
(§2) In a water tank 4, test liquid for supplement prepared in advance was stored and transferred into the water tank 1 at a rate of 5 ml/minute using a pump for an agent 5. The test liquid for supplement was prepared by adding calcium chloride and sodium hydrogencarbonate to city water, which was dechlorinated by passing through a column of active carbon, in amounts such that the calcium hardness was 150 mg CaCO3/liter and the acid consumption (pH 4.8) was 150 mg CaCO3/liter. As the nutrient for microorganisms, 100 mg/liter of citric acid was added. To the obtained solution, a test agent was added and pH was adjusted at 8.5 by adding sodium hydroxide.
(§3) When the test was started, dirt was added into the water in the water tank 1 in an amount such that the turbidity of the water was 50. As the dirt, a concentrated liquid of reverse washing discharged from filters for industrial water in Chiba area was used. The dirt was added into the water tank 1 in an amount corresponding to a turbidity of 25 at each time when 48 hours and 96 hours had passed after the start of the test.
(§4) The number of microorganisms in the circulating water and the turbidity of the circulating water were measured 48 hours, 72 hours and 120 hours after the start of the test. The test board of synthetic rubber attached to the column 3 was taken out 120 hours after the start of the test. After slime attached to the test board was cleaved and dried to the constant weight at 105° C., the weight of the slime was measured and the amount of the attached slime was obtained.
(§5) As part A of the test agent, a mixed liquid composed of 40% by weight of an aqueous solution of sodium hypochlorite having a concentration of effective chlorine of 12% by weight, 8% by weight of a sulfamic acid, 10% by weight of sodium hydroxide and 42% by weight of water was used. This mixed liquid is a solution conventionally used as the agent for preventing formation of slime. As part B of the agent, an anionic polymer or a phosphonic acid was used.

Data set [1] has as its system microorganisms in the circulating water. As to the kind of experiment: Number of microorganisms in the circulating water. The protocol:
as §1, §2, §3, §4, §5

The next data set relates to sludge. The data set is described as follows: Accumulation of sludge at the bottom of the water tank of the circulating test water apparatus. Conditions: 120 hours after start of test; agent concentrations as in each example. On the procedure:
as §1, §2, §3
A valve 6 at a lower portion of the water tank 1 was opened and the water in the water tank 1 was removed 120 hours after the start of the test. The valve 6 was then closed again. Into the water tank 1, 200 ml of pure water was added and dirt accumulated at the lower portion of the water tank was suspended using a brush. The valve was opened and the formed suspension was taken out. After the dirt was separated using a centrifuge and dried to the constant weight at 105° C., the weight of the dirt was measured and the amount of accumulated sludge was obtained.
as §5

A short description of data set [2]: Storage stability of effective chlorine in the composition at 40° C. shielded from light. The data set is classed as physicochemical. Particulars: for concentration of effective chlorine remained: pH 14; for Fraction of remaining effective chlorine: pH of composition 14, 40° C. The protocol: A composition composed of 40% by weight of an aqueous solution of sodium hypochlorite having a concentration of effective chlorine of 12% by weight, 8% by weight of sulfamic acid, 10% by weight of an anionic polymer or a phosphonic acid and the remaining amount of sodium hydroxide and water was prepared. pH of the composition was adjusted by changing the amount of sodium hydroxide. The prepared composition was stored in a vessel kept at the constant temperature of 40° C. and shielded from light. The concentration of the effective chlorine was measured after the composition was stored for a prescribed time.
For the measurement of the concentration of the effective chlorine, a residual chlorine meter manufactured by HACH Company and a reagent specific for this measurement were used. BELCREN (the weight-average molecular weight: 2730) manufactured by GREAT LAKES CHEMICAL Company was used as the polymaleic acid. ISOBAN (the weight-average molecular weight: 10,800) manufactured by KURARAY Co., Ltd. was used as the maleic acid-isobutylene copolymer. AQUARICK GL (the weight-average molecular weight: 10,700) manufactured by NIPPON SHOKUBAI Co., Ltd. was used as the acrylic acid-hydroxyallyloxypropanesulfonic acid copolymer. DEQUEST 2010 manufactured by MONSANTO Company was used as 1-hydroxyethylidene-1,1-diphosphonic acid. BAYHIBIT AM manufactured by BAYER Company was used as 2-phosphonobutane-1,2,4-tricarboxylic acid. BELCORE 575 manufactured by GREAT LAKES Company was used as hydroxyphosphonoacetic acid.

This note sets out measurements from patent US7285221B2, “Composition for preventing of slime and method for preventing slime” (Kurita Water Industries, Ltd., priority 2002, dated 2007).

SMILES strings stand for the structures.

As to `CC(O)(P(=O)(O)O)P(=O)(O)O` [Comparative Example 9, 1-hydroxyethylidene-1,1-diphosphonic acid], the “Attachment of slime amount” value in the data set on slime came out at 16.1 mg/dm^2. Also, the “Number of microorganisms in circulating water” value (“Number … in circulating water” below) in data set [1] (after 48 hours) turned out to be 1.3e+06 mL⁻¹; in data set [1] (after 72 hours), 490000 mL⁻¹; in data set [1] (after 120 hours), 680000 mL⁻¹. Also, the “Accumulation of sludge amount” value with sludge was determined as 39.6 mg.
For `O=C(O)CCC(CC(=O)O)(C(=O)O)P(=O)(O)O` (stereo not shown) [Comparative Example 11, 2-phosphonobutane-1,2,4-tricarboxylic acid] the same measures were 16.5 mg/dm^2, 3.8e+06 mL⁻¹, 890000 mL⁻¹, 760000 mL⁻¹ and 48.8 mg.
On to `OCl` [sodium hypochlorite], for which the “concentration of effective chlorine remained” value is “about 20%” in data set [2] (after 3 month) and “about 60%” in data set [2] (after one month). The results for the “Fraction of remaining effective chlorine” value in data set [2] (after 7 days), in data set [2] (after 30 days) and in data set [2] (after 90 days) were 91%, 59% and 18%, respectively.
For `O=C(O)CCC(CC(=O)O)(C(=O)O)P(=O)(O)O` (stereo not shown) [Comparative Example 10, 2-phosphonobutane-1,2,4-tricarboxylic acid], in the data set on slime, the “Attachment of slime amount” value came out at 19.2 mg/dm^2. Also, the “Number … in circulating water” value in data set [1] (after 48 hours) was found to be 670000 mL⁻¹; in data set [1] (after 72 hours), 840000 mL⁻¹; in data set [1] (after 120 hours) it was 420000 mL⁻¹. In the data set with sludge, the “Accumulation of sludge amount” value came to 55.5 mg.
The corresponding values for `O=C(O)C(O)P(=O)(O)O` (stereo not shown) [Comparative Example 13, hydroxy-phosphonoacetic acid] are 16.5 mg/dm^2, 660000 mL⁻¹, 350000 mL⁻¹, 490000 mL⁻¹ and 51.1 mg.
Take `CC(O)(P(=O)(O)O)P(=O)(O)O` [Comparative Example 8, 1-hydroxyethylidene-1,1-diphosphonic acid]: the “Attachment of slime amount” value in the data set on slime was found to be 17.3 mg/dm^2. Further, the “Number … in circulating water” value was found to be 720000 mL⁻¹ in data set [1] (after 48 hours), 550000 mL⁻¹ in data set [1] (after 72 hours) and 490000 mL⁻¹ in data set [1] (after 120 hours). Also, the “number of microorganisms in the circulating water, in words” value in data set [1] (comparison in words, no time point) is reported as “not substantially different”. For the same compound, the “Accumulation of sludge amount” value in the data set with sludge was determined as 42.8 mg.
